In patent US20260234403A1, “PHOTOACTIVE FLUORESCENT COMPOUNDS AND USE THEREOF FOR LABELING OF PROTEINS” (EIKON THERAPEUTICS, INC., priority 2023, published 2026):

What was measured:
[1] = test system: Wild-type (WT) U2OS cells; experiment: Reduction in nonspecific labeling of WT cells (number of tracks vs PA-JF549); format: cell-based; conditions: 100 nM, 1 hr, ratio with PA-JF549 in the numerator
Description: Using the methods described in Tables 4a and 4b above, labelling specificity of the compound of Examples 1-28 was measured and compared to PA-JF549. U2OS cells wild type or expressing ER-HaloTag fusion were incubated with PA-JF549 or Examples 1-28 for 1 hr. […] Labeling specificity, as measured by the fold reduction in nonspecific labeling of WT cells, was calculated by number of tracks measured in WT cells for Examples 1-28 compared to the number of tracks in WT cells for PA-JF549, expressed as the ratio with PA-JF549 in the numerator.

[2] = test system: histone H2B-HaloTag fusion; experiment: Halo-protein specificity (Specificity Factor), single molecule spot detection; format: cell-based; conditions: ratio of slope (spots vs dye concentration, 200 nM to 1 nM, 45 minutes) relative to PA-JF549; WT and H2B-HaloTag U2OS cells
Description: Images were collected every 10 msec for 5 seconds per field of view and pulses of ascending intensity 405 nm light (between 0 and 12 mW at the coverslip) were used to photoactivate dye molecules.
For each dye compound, a linear regression was used to determine the relationship between the concentration of dye compound and the number of fluorescence spots detected on the microscope, where in WT cells the ideal dye would have no correlation between compound concentration and number of slots measured. The Specificity Factor was calculated as the ratio of the slope of the compound in question relative to the slope calculated for PA-JF549 and is shown in Table 3 below.

[3] = Table 4b, Example 19 with 642 nm light

Row | Molecule | Fold reduction in nonspecific labeling ([1]; Table 4a) | Fold reduction in nonspecific labeling [1, 3] | Specificity Factor [2]
1 | COC[C@H]1CCN1c1ccc2c(c1)Oc1cc(N3CC[C@@H]3COC)ccc1C21C(=[N+]=[N-])C(=O)c2ccc(C(=O)NCCOCCOCCCCCCCl)cc21 [Example 3, N-(2-(2-((6-chlorohexyl)oxy)ethoxy)ethyl)-2-diazo-3′,6′-bis((R)-2-(methoxymethyl)azetidin-1-yl)-3-oxo-2,3-dihydrospiro[indene-1,9′-xanthene]-6-carboxamide] | 1-5 | 1-5 | 2.07
2 | CN(C)C(=O)C1CN(c2ccc3c(c2)Oc2cc(N4CC(C(=O)N(C)C)C4)ccc2C32C(=[N+]=[N-])C(=O)c3ccc(C(=O)NCCOCCOCCCCCCCl)cc32)C1 [Example 4, 1,1′-(6-((2-(2-((6-chlorohexyl)oxy)ethoxy)ethyl)carbamoyl)-2-diazo-3-oxo-2,3-dihydrospiro[indene-1,9′-xanthene]-3′,6′-diyl)bis(N,N-dimethylazetidine-3-carboxamide)] | >10 | >10 | 23.8
3 | [N-]=[N+]=C1C(=O)c2ccc(COCCOCCOCCCCCCCl)cc2C12c1ccc(N3CCC3)cc1Oc1cc(N3CCC3)ccc12 [Example 27, 3′,6′-di(azetidin-1-yl)-6-((2-(2-((6-chlorohexyl)oxy)ethoxy)ethoxy)methyl)-2-diazospiro[indene-1,9′-xanthen]-3(2H)-one] |  | <1 | 
4 | COC(=O)C1CN(c2ccc3c(c2)Oc2cc(N4CC(C(=O)OC)C4)ccc2C32C(=[N+]=[N-])C(=O)c3ccc(C(=O)NCCOCCOCCCCCCCl)cc32)C1 [Reference Example 1, dimethyl 1,1′-(6-((2-(2-((6-chlorohexyl)oxy)ethoxy)ethyl)carbamoyl)-2-diazo-3-oxo-2,3-dihydrospiro[indene-1,9′-xanthene]-3′,6′-diyl)bis(azetidine-3-carboxylate)] | >10 | >10 | 2.66
5 | [N-]=[N+]=C1C(=O)c2ccc(C(=O)NCCOCCOCCCCCCCl)cc2C12c1ccc(N3CC(C(=O)O)C3)cc1Oc1cc(N3CC(C(=O)O)C3)ccc12 [Reference Example 2, 1,1′-(6-((2-(2-((6-chlorohexyl)oxy)ethoxy)ethyl)carbamoyl)-2-diazo-3-oxo-2,3-dihydrospiro[indene-1,9′-xanthene]-3′,6′-diyl)bis(azetidine-3-carboxylic acid)] | >10 | >10 | <1
6 | (E)-3′,6′-di(azetidin-1-yl)-6-(4-(2-((6-chlorohexyl)oxy)ethoxy)but-1-en-1-yl)-2-diazospiro[indene-1,9′-xanthen]-3(2H)-one and (Z)-3′,6′-di(azetidin-1-yl)-6-(4-(2-((6-chlorohexyl)oxy)ethoxy)but-1-en-1-yl)-2-diazospiro[indene-1,9′-xanthen]-3(2H)-one [Example 23] |  | >10 | 
